This is an account of results in patent publication US8598354B2, “Compounds having antiparasitic or anti-infectious activity” (University of South Florida, priority 2008, dated 2013).

Molecules are shown by their SMILES. pIC50: −log10 of the molar value. Some results are limits rather than exact numbers.

For orientation: pIC50 means −log10 of the IC50, conventionally taken in molar units. One may read the ED50 as the midpoint of the dose-response relation.

Data set [1] relates to P. falciparum. Briefly: In vitro antiplasmodial activity, MSF assay, strain not specified or all 3 strains together. Format: cell-based, Plasmodium falciparum. Particulars: for reduction of potency relative to ELQ-121: relative to ELQ-121, in vitro testing; for pIC50: strain not stated, read-out: IC50 (effect of 3-position side chain length); for in vitro antiplasmodial activity (SAR remark in words): compared within the endochin series. The protocol:
(§1) Plasmodium falciparum strains D6 and Dd2 were obtained from the MR4 (ATCC, Manassas, Va., USA). D6 is sensitive to chloroquine but mildly resistant to mefloquine while Dd2 is resistant to multiple quinoline and antifolate antimalarial agents. Tm90.C2B is resistant to atovaquone, chloroquine, mefloquine, and quinine.
Three different laboratory strains of P. falciparum were cultured in human erythrocytes by standard methods under a low oxygen atmosphere (5% O2, 5% CO2, 90% N2) in an environmental chamber as described in Trager, W., and J. B. Jensen. 1976. Human malaria parasites in continuous culture. Science 193:673-5. The culture medium was RPMI-1640, supplemented with 25 mM HEPES buffer, 25 mg/L gentamicin sulfate, 45 mg/L hypoxanthine, 10 mM glucose, 2 mM glutamine, and 0.5% Albumax II (complete medium). The parasites were maintained in fresh human erythrocytes suspended at a 2% hematocrit in complete medium at 37° C. Stock cultures were sub-passaged every 3 to 4 days by transfer of infected red cells to a flask containing complete medium and uninfected erythrocytes.
In vitro antimalarial activity of the compounds was assessed by the SYBR Green I fluorescence-based method (the “MSF assay”) described previously by Smilkstein, M., N. Sriwilaijaroen, J. X. Kelly, P. Wilairat, and M. Riscoe. 2004. Simple and inexpensive fluorescence-based technique for high-throughput antimalarial drug screening. Antimicrob Agents Chemother 48:1803-6 with minor modifications (Winter, R. W., J. X. Kelly, M. J. Smilkstein, R. Dodean, G. C. Bagby, R. K. Rathbun, J. I. Levin, D. Hinrichs, and M. K. Riscoe. 2006. Evaluation and lead optimization of anti-malarial acridones. Exp Parasitol 114:47-56). Experiments were set up in triplicate in 96 well plates (Costar, Corning) with two-fold dilutions of each drug across the plate in a total volume of 100 microliters and at a final red blood cell concentration of 2% (v/v). Stock solutions of each drug were prepared by dissolving in ethanol or dimethylsulfoxide (as appropriate) at 10 mM. […] Automated pipeting and dilution was carried out with the aid of a programmable Precision 2000 robotic station (BioTek, Winooski, Vt.). An initial parasitemia of 0.2% was attained by addition of normal uninfected red cells to a stock culture of asynchronous parasite infected red cells (PRBC). The plates were incubated for 72 hrs at 37° C. in an atmosphere of 5% CO2, 5% O2, and 90% N2. After this period the SYBR Green I dye-detergent mixture (100 μl) was added and the plates were incubated at room temperature for an hour in the dark and then placed in a 96-well fluorescence plate reader (Spectramax Gemini-EM, […]) for analysis with excitation and emission wavelength bands centered at 497 and 520 nm, respectively. The fluorescence readings were plotted against the logarithm of the drug concentration and curve fitting by nonlinear regression analysis (GraphPad Prism software) yielded the drug concentration that produced 50% of the observed decline relative to the maximum readings in drug-free control wells (IC50).
The compounds were screened for antiplasmodial activity in vitro against chloroquine (CQ) sensitive (D6), multidrug resistant (Dd2), and chloroquine/quinine/atovaquone (ATV)-resistant (Tm90.C2B) strains of P. falciparum. […] The following observations on the structure-activity relationships (SAR) can be made: • 1. It may be observed that the length of the 3-position side chain influences the antiplasmodial effect.

For data set [2], the system named is Plasmodium falciparum strain Tm90.C2B (chloroquine/quinine/atovaquone-resistant). Kind of data set: In vitro antimalarial activity, MSF assay, strain Tm90.C2B. The following applies: Tm90.C2B compared with the other strains. The format is cell-based. The protocol: as §1
(§2) Three different laboratory strains of P. falciparum were cultured in human erythrocytes by standard methods under a low oxygen atmosphere (5% O2, 5% CO2, 90% N2) in an environmental chamber as described in Trager, W., and J. B. Jensen. 1976. Human malaria parasites in continuous culture. Science 193:673-5. […]
(§3) In vitro antimalarial activity of the compounds was assessed by the SYBR Green I fluorescence-based method (the “MSF assay”) described previously by Smilkstein, M., N. Sriwilaijaroen, J. X. Kelly, P. Wilairat, and M. Riscoe. […] Simple and inexpensive fluorescence-based technique for high-throughput antimalarial drug screening. […] After this period the SYBR Green I dye-detergent mixture (100 μl) was added and the plates were incubated at room temperature for an hour in the dark and then placed in a 96-well fluorescence plate reader (Spectramax Gemini-EM, […]) for analysis with excitation and emission wavelength bands centered at 497 and 520 nm, respectively. […]

The subject of data set [3] is Plasmodium falciparum strain D6 (chloroquine sensitive). Kind of data set: In vitro antimalarial activity, SYBR Green I fluorescence-based method (MSF assay), strain D6. The format is cell-based. Particulars: P. falciparum D6, 72 hrs. On the procedure: as §1, §2, §3
In data set [4] the test system is P. yoelii. Kind of data set: In vivo efficacy in a murine malaria model of patent infection with P. yoelii (modified Thompson procedure). The protocol:
The activity of the ester, ELQ-125, against the blood stages was assessed using a modified Thompson procedure (Arba Ager, 1984). Rodent malaria models, vol. 68/1. Springer-Verlag, Berlin. Mice (female, CF1) were infected intravenously with 1-5 million P. yoelii parasitized erythrocytes from a donor animal. […] The drug was administered by gavage once daily for 3 days. On the 4th day blood films were prepared and the extent of parasitemia was determined microscopically. ED50 and ED90 values (mg/kg/day) were derived from the dose required to reduce the parasite burden by 50% and 90%, respectively, relative to drug-free controls. The procedures involved, together with all matters relating to the care and housing of the animals used in this study, were approved by the Portland VA Medical Center Institutional Animal Care and Use Committee (approval #0807).
Prodrugs containing a water-soluble pro-moiety that could be metabolically released after drug administration were designed and synthesized.

Data set [5] is described as follows: Water solubility and vehicle miscibility of the prodrug. The following applies: prodrug compared with ELQ-121. Format: physicochemical.
The test system of data set [6] is Toxoplasma gondii strain 2F. Kind of data set: Anti-T. gondii activity, 2F strain beta-galactosidase assay in HFF cells. Format: cell-based. Particulars: compared with the correlation seen for P. falciparum. The protocol:
Determination of anti-T. gondii IC50 and TD50 values—use of the 2F strain. This method, which employs tachyzoites of Toxoplasma gondii strain 2F that constitutively expresses cytoplasmic Beta-galactosidase, has been described recently by Jones-Brando et al. (Jones-Brando, L., D'angelo, J., Posner, G H, and Yolken, R., 2006, In vitro inhibition of Toxoplasma gondii by four new derivatives of artemisinin, Antimicrobial Agents and Chemotherapy 50: 4206-8). […] Briefly, each drug was dissolved in ethanol or DMSO, as appropriate, at a concentration of 10 mM and diluted with complete Dulbecco's modified Eagle's medium (DMEM) to 1,000 μM. […] After this period, Triton X-100 is added to inactivate the parasite and the color reactions in the wells were read in a microplate reader. For anti-T. gondii IC50 determinations, the plates are read at 570-650 nm. The amount of absorbance (570-650 nm) in wells containing drug, parasites, and CPRG reagent is compared to that in control wells containing T. gondii, HFF cells and CPRG. The amount of absorbance in these wells is directly proportional to the amount of beta-galactosidase activity and thus correlative to the number of viable tachyzoites in each well. Thus, a decrease in the amount of absorbance indicates an inhibition of parasite growth. […]

Setting [7] is: mice, gavage once daily for 3 days in 100 μl NeoBee M5.

With `CCCCCCCc1c(C)[nH]c2c(F)cc(F)cc2c1=O` [6,8-difluoro positional isomer], the “reduction of potency relative to ELQ-121” value in data set [1] is “≈ 2,000 fold”. On to `CCCCCCCc1c(C)[nH]c2cc(OC)ccc2c1=O` [ELQ-100, endochin, reference compound], for which, in data set [2], the “cross-resistance / sensitivity of atovaquone-resistant Tm90.C2B (in words)” value is given as “modest level of ATV cross-resistance”. The negative logarithm of the IC50 (pIC50) in data set [1] is roughly 8.52. As to `COc1ccc2c(=O)c(CCCCCCCCCCC(F)(F)F)c(C)[nH]c2c1` [ELQ-103], the “IC50 values for all 3 tested strains (in words)” value in data set [1] (D6, Dd2 and Tm90.C2B) is “low nanomolar range”. Regarding `CCCCCCCc1c(O)[nH]c2cc(OC)ccc2c1=O` [ELQ-106], in data set [3], the pIC50 was less than 5.60. Turning to `CCCCCCCc1c(C)[nH]c2cc(Cl)ccc2c1=O` [ELQ-109], the “in vitro antiplasmodial activity (SAR remark in words)” value (“in vitro antiplasmodial activity” below) in data set [1] is given as “only a modest reduction in in vitro potency”. Consider `CCCCc1c(C)[nH]c2cc(OC)ccc2c1=O` [ELQ-115], for which the pIC50 in data set [1] is roughly 7.52. With `CCCCCCCc1c(C)[nH]c2cc(O)ccc2c1=O` [ELQ-117], in data set [1], the “in vitro antiplasmodial activity” value is “greatly diminishes antiplasmodial activity”. For `CCCCCCCc1c(C)nc2cc(F)cc(F)c2c1Cl` [ELQ-119], the “reduction of potency relative to ELQ-121” value in data set [1] is reported as > 1,000 fold. Take `CCCCCCCc1c(C)[nH]c2cc(F)ccc2c1=O` [ELQ-120]: the “in vitro antiplasmodial activity” value in data set [1] is “only a modest reduction in in vitro potency”. Take `CCCCCCCc1c(C)[nH]c2cc(F)cc(F)c2c1=O` [ELQ-121, 2-Methyl-3-(n-heptyl)-5.7-difluorquinolone]: the “in vitro antiplasmodial activity” value in data set [1] is reported as “one of the most potent compounds in the tested series”.

As for `CCCCCCCc1c(C)[nH]c2cc(Cl)cc(Cl)c2c1=O` [ELQ-124], the “in vitro antiplasmodial activity” value in data set [1] is reported as “weak in vitro activity”. `CCCCCCCc1c(C)nc2cc(F)cc(F)c2c1OC(=O)OCCOCCOCCOCCOC` [ELQ-125]: the “parasite status on follow-up” value in data set [4] (25 mg/kg/day oral, 3 days, followed until euthanized 10 days later) is “remained parasite-free”. In addition, in data set [4] (setting [7]), the ED50 came to 11 mg/kg/day and the ED90 was 22 mg/kg/day. In addition, the “in vivo efficacy (in words)” value in data set [4] (prodrug compared with ELQ-121) was “greatly enhanced in vivo efficacy”. Also, in data set [5], the water solubility entry was “improved water solubility”.

Turning to `CCCCCCCc1c(C)[nH]c2ccccc2c1=O` [ELQ-127], the “in vitro antiplasmodial activity” value in data set [1] is “equally active against all three parasite strains”. In data set [1] (relative to endochin), the “weakening of in vitro activity relative to endochin” value is “roughly 5 fold”. For `CCCCCCCc1c(C)[nH]c2ccc(Cl)cc2c1=O` [ELQ-130], in data set [2], the “cross-resistance / sensitivity of atovaquone-resistant Tm90.C2B (in words)” value was “equal sensitivity”. Besides, the “in vitro antiplasmodial activity” value in data set [1] is recorded as “modest reduction in antimalarial response”.

For `CCCCCCCc1c(C)n(C)c2cc(F)cc(F)c2c1=O` [ELQ-134], the “reduction of potency relative to ELQ-121” value in data set [1] was “about 300 fold”. Also, the “growth inhibitory activity against Toxoplasma gondii (in words)” value in data set [6] is reported as “enhanced growth inhibitory activity”.
